tested on: YAP/TAZ-TEAD transcription; experiment: Reporter gene assay for measuring the inhibition of YAP/TAZ-TEAD transcription (TEAD-responsive element luciferase reporter in Hek293T cells); assay type: cell-based; settings: Hek293T cells transiently transfected with TEAD-responsive element luciferase reporter; 24 hours incubation
Experimental: Hek293T cells are cultured in DMEM supplemented with 10% fetal bovine serum, Sodium pyruvate, Sodium bicarbonate, L-glutamine. The cells are harvested and transiently transfected with TEAD-responsive element luciferase reporter. Transfected cells are plated in 384-wells plate containing pre-diluted compounds. After 24 hours incubation at 37° C./5% CO2, assay plates were cooled down to RT and levelled to an equal volume per well, prior to the addition of 25 uL luciferase substrate SteadyLite (Perkin Elmer)/well. The plate was shaken for 10 min at 600 rpm, centrifuged for 1 min at 500 rpm and measured with an Envision reader (PerkinElmer). The amount of relative light units produced by the TEAD reporter is used to calculated percent of inhibition. The percent of reporter inhibition was calculated in the presence of a positive control inhibitor (100% inhibition) versus a condition with the presence of the vehicle basal activity of the reporter (0% inhibition). The ability of a test compound to inhibit this activity was determined as: Percentage inhibition=[[…]((RLU determined in the presence of vehicle−RLU determined for sample with test compound present) divided by (RLU determined in the presence of vehicle−RLU determined for sample with positive control inhibitor))]*100
The activities of example compounds tested are depicted in the table below. The activity ranges A, B and C refer to IC50 values in the reporter gene assay as follows: “A”: IC50<1 μM; “B”: 1 μM≤IC50≤20 μM and “C”: IC50>20 μM; NT=not tested.

IC50 [nM] | Compound
1000 to 20000 | C=CC(=O)NCC1Cc2c(Cc3noc(=O)[nH]3)cccc2N(c2ccc(C(F)(F)F)cc2)C1 (centres unmarked) [Cpd. No. 168-En1, N-((5-((5-oxo-4,5-dihydro-1,2,4-oxadiazol-3-yl)methyl)-1-(4-(trifluoromethyl)phenyl)-1,2,3,4-tetrahydroquinolin-3-yl)methyl)acrylamide]
1000 to 20000 | OCCNC1Cc2ccccc2N(c2ccc(C(F)(F)F)cc2)C1 (single isomer, unassigned) [043-En1, (R)- or (S)-2-((1-(4-(trifluoromethyl)phenyl)-1,2,3,4-tetrahydroquinolin-3-yl)amino)ethan-1-ol]
< 1000 | FC(F)(F)c1ccc(N2CC(C3CC(Br)=NO3)Cc3ccccc32)cc1 (single isomer, unassigned) [Cpd. No. 194(Dia2)-En2, 3-bromo-5-(1-(4-(trifluoromethyl)phenyl)-1,2,3,4-tetrahydroquinolin-3-yl)-4,5-dihydroisoxazole]
1000 to 20000 | C=CC(=O)NCC1Cc2c(CC(=O)O)cccc2N(c2ccc(C(F)(F)F)cc2)C1 (centres unmarked) [Cpd. No. 161, 2-(3-(acrylamidomethyl)-1-(4-(trifluoromethyl)phenyl)-1,2,3,4-tetrahydroquinolin-5-yl)acetic acid]

same assay, conditions: Homo sapiens, HEK-293T, 24 h, Hek293T cells transiently transfected with TEAD-responsive element luciferase reporter; 24 hours incubation

IC50 [nM] | Compound
< 1000 | C=CC(=O)NC1Cc2ccccc2N(c2ccc(C(F)(F)F)nc2)C1 (centres unmarked) [compound 010, N-(1-(6-(trifluoromethyl)pyridin-3-yl)-1,2,3,4-tetrahydroquinolin-3-yl)acrylamide]
< 1000 | C=CS(=O)(=O)NCC1Cc2ccccc2N(c2ccc(C(F)(F)F)cc2)C1 (centres unmarked) [compound 122, N-((1-(4-(trifluoromethyl)phenyl)-1,2,3,4-tetrahydroquinolin-3-yl)methyl)ethenesulfonamide]
< 1000 | C#CC(=O)NC1Cc2ccccc2N(c2ccc(C(F)(F)F)cc2)C1 (centres unmarked) [compound 040, N-(1-(4-(trifluoromethyl)phenyl)-1,2,3,4-tetrahydroquinolin-3-yl)propiolamide]
< 1000 | C=CC(=O)NCC1Cc2ccccc2N(CC2CCCCC2)C1 (centres unmarked) [compound 179, N-((1-(cyclohexylmethyl)-1,2,3,4-tetrahydroquinolin-3-yl)methyl)acrylamide]
< 1000 | C=CC(=O)NC1Cc2ccccc2N(c2ccc(F)cc2)C1 (centres unmarked) [compound 035, N-(1-(4-fluorophenyl)-1,2,3,4-tetrahydroquinolin-3-yl)acrylamide]
> 20000 | C=CC(=O)NC1Cc2ccccc2N(C(=O)C2CCCCC2)C1 (centres unmarked) [Cpd. No. 173, N-(1-(cyclohexanecarbonyl)-1,2,3,4-tetrahydroquinolin-3-yl)acrylamide]
< 1000 | C=CC(=O)NCC1Cc2ccccc2N(Cc2cccc(C(F)(F)F)c2)C1 (centres unmarked) [compound 185, N-((1-(3-(trifluoromethyl)benzyl)-1,2,3,4-tetrahydroquinolin-3-yl)methyl)acrylamide]
< 1000 | C=CC(=O)NCC1Cc2ccccc2N(c2cccc(C(C)C)c2)C1 (centres unmarked) [compound 088, N-((1-(3-isopropylphenyl)-1,2,3,4-tetrahydroquinolin-3-yl)methyl)acrylamide]
< 1000 | C=CC(=O)NC1Cc2ccccc2N(c2cccc(C(F)(F)F)c2)C1 (centres unmarked) [compound 003, N-(1-(3-(trifluoromethyl)phenyl)-1,2,3,4-tetrahydroquinolin-3-yl)acrylamide]
< 1000 | C=CC(=O)NC1Cc2ccccc2N(Cc2ccc(Br)cc2)C1 (centres unmarked) [compound 191, N-(1-(4-bromobenzyl)-1,2,3,4-tetrahydroquinolin-3-yl)acrylamide]
< 1000 | C=CC(=O)NC1Cc2c(Br)cccc2N(c2ccc(C(F)(F)F)cc2)C1 (centres unmarked) [compound 058, N-(5-bromo-1-(4-(trifluoromethyl)phenyl)-1,2,3,4-tetrahydroquinolin-3-yl)acrylamide]
< 1000 | C=CC(=O)NCC1Cc2ccccc2N(c2ccnc(C(F)(F)F)c2)C1 (centres unmarked) [compound 096, N-((1-(2-(trifluoromethyl)pyridin-4-yl)-1,2,3,4-tetrahydroquinolin-3-yl)methyl)acrylamide]
< 1000 | C=CC(=O)N(C)C1Cc2ccccc2N(c2ccc(C(F)(F)F)cc2)C1 (centres unmarked) [compound 132, N-methyl-N-(1-(4-(trifluoromethyl)phenyl)-1,2,3,4-tetrahydroquinolin-3-yl)acrylamide]
1000 to 20000 | C=CC(=O)N(CCOC)C1Cc2ccccc2N(c2ccc(C(F)(F)F)cc2)C1 (centres unmarked) [compound 133, N-(2-methoxyethyl)-N-(1-(4-(trifluoromethyl)phenyl)-1,2,3,4-tetrahydroquinolin-3-yl)acrylamide]
1000 to 20000 | CC(C)=CC(=O)NCC1Cc2ccccc2N(c2ccc(C(F)(F)F)cc2)C1 (centres unmarked) [compound 099, 3-methyl-N-((1-(4-(trifluoromethyl)phenyl)-1,2,3,4-tetrahydroquinolin-3-yl)methyl)but-2-enamide]
< 1000 | C=CC(=O)NCC1Cc2ccccc2N(C2CCCCC2)C1 (centres unmarked) [compound 118, N-((1-cyclohexyl-1,2,3,4-tetrahydroquinolin-3-yl)methyl)acrylamide]
< 1000 | C=CC(=O)NC1Cc2ccccc2N(CC2CCCCC2)C1 (centres unmarked) [Cpd. No. 175, N-(1-(cyclohexylmethyl)-1,2,3,4-tetrahydroquinolin-3-yl)acrylamide]

IC50 [nM] | Compound
< 1000 | C=CC(=O)NC1Cc2ccccc2N(c2ccc(C(F)(F)F)cc2)C1 (single isomer, unassigned) [001-En1]
< 1000 | C=CC(=O)NC1Cc2ccccc2N(c2cc(F)cc(F)c2)C1 (centres unmarked) [compound 027, N-(1-(3,5-difluorophenyl)-1,2,3,4-tetrahydroquinolin-3-yl)acrylamide]
< 1000 | C=CC(=O)NCC1Cc2ccccc2N(c2ccc(F)cc2)C1 (centres unmarked) [compound 097, N-((1-(4-fluorophenyl)-1,2,3,4-tetrahydroquinolin-3-yl)methyl)acrylamide]
< 1000 | C#CC(=O)NCC1Cc2ccccc2N(c2ccc(C(F)(F)F)cc2)C1 (centres unmarked) [compound 119, N-((1-(4-(trifluoromethyl)phenyl)-1,2,3,4-tetrahydroquinolin-3-yl)methyl)propiolamide]
< 1000 | C=CC(=O)NCC1Cc2ccccc2N(c2ccccc2)C1 (centres unmarked) [compound 085, N-((1-phenyl-1,2,3,4-tetrahydroquinolin-3-yl)methyl)acrylamide]
< 1000 | C=CC(=O)NC1Cc2ccccc2N(c2ccc(C(F)F)cc2)C1 (centres unmarked) [compound 020, N-(1-(4-(difluoromethyl)phenyl)-1,2,3,4-tetrahydroquinolin-3-yl)acrylamide]
1000 to 20000 | C=CC(=O)NC1Cc2ccccc2N(c2ccnc(C(F)(F)F)c2)C1 (centres unmarked) [compound 012, N-(1-(2-(trifluoromethyl)pyridin-4-yl)-1,2,3,4-tetrahydroquinolin-3-yl)acrylamide]
1000 to 20000 | NC1Cc2ccccc2N(c2ccc(C(F)(F)F)cc2)C1 (centres unmarked) [171 (Int-3), 1-(4-(trifluoromethyl)phenyl)-1,2,3,4-tetrahydroquinolin-3-amine]
< 1000 | C=CC(=O)N(CCOC)CC1Cc2ccccc2N(c2ccc(C(F)(F)F)cc2)C1 (centres unmarked) [compound 135, N-(2-methoxyethyl)-N-((1-(4-(trifluoromethyl)phenyl)-1,2,3,4-tetrahydroquinolin-3-yl)methyl)acrylamide]
< 1000 | C=CC(=O)NC1Cc2ccccc2N(c2ccc(Cl)cc2)C1 (centres unmarked) [compound 033, N-(1-(4-chlorophenyl)-1,2,3,4-tetrahydroquinolin-3-yl)acrylamide]
> 20000 | C=CC(=O)NC1Cc2c(CC(=O)NS(C)(=O)=O)cccc2N(c2ccc(C(F)(F)F)cc2)C1 (centres unmarked) [compound 165, N-(5-(2-(methylsulfonamido)-2-oxoethyl)-1-(4-(trifluoromethyl)phenyl)-1,2,3,4-tetrahydroquinolin-3-yl)acrylamide]
1000 to 20000 | N#CCCNCC1Cc2ccccc2N(c2ccc(C(F)(F)F)cc2)C1 (centres unmarked) [compound 126, 3-(((1-(4-(trifluoromethyl)phenyl)-1,2,3,4-tetrahydroquinolin-3-yl)methyl)amino)propanenitrile]
< 1000 | C=CC(=O)NC1Cc2ccccc2N(c2ccc(C(F)(F)F)cn2)C1 (centres unmarked) [compound 011, N-(1-(5-(trifluoromethyl)pyridin-2-yl)-1,2,3,4-tetrahydroquinolin-3-yl)acrylamide]
1000 to 20000 | CCC(=O)NC1Cc2c(Cc3ccccc3)cccc2N(c2ccc(C(F)(F)F)cc2)C1 (centres unmarked) [compound 067, N-(5-benzyl-1-(4-(trifluoromethyl)phenyl)-1,2,3,4-tetrahydroquinolin-3-yl)propionamide]
< 1000 | C=CC(=O)NC1Cc2c(C(N)=O)cccc2N(c2ccc(C(F)(F)F)cc2)C1 (centres unmarked) [compound 136, 3-acrylamido-1-(4-(trifluoromethyl)phenyl)-1,2,3,4-tetrahydroquinoline-5-carboxamide]
> 20000 | C=CC(=O)NCC1Cc2ccccc2N(c2cccc(-c3ccccc3)c2)C1 (centres unmarked) [compound 093, N-((1-([1,1′-biphenyl]-3-yl)-1,2,3,4-tetrahydroquinolin-3-yl)methyl)acrylamide]
1000 to 20000 | CCC(=O)NCC1Cc2ccccc2N(c2ccc(C#N)cc2)C1 (centres unmarked) [compound 148, N-((1-(4-cyanophenyl)-1,2,3,4-tetrahydroquinolin-3-yl)methyl)propionamide]

Source: US20240025856A1, “1,2,3,4-TETRAHYDROQUINOLINE DERIVATIVES AS INHIBITORS OF THE YAP/TAZ-TEAD ACTIVATION FOR TREATING CANCER” (KATHOLIEKE UNIVERSITEIT LEUVEN, priority 2020, published 2024)
